# Laboratory results as given in PubChem BioAssay (NCI).
#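 Each compound was tested at five concentrations against cells in 96-well plates for 48 hours. TGI denotes the concentration required for complete inhibition of growth.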
# Legend:
# Assay in all cases: NCI anticancer screen, dose series, 48 h
# [1] = system: A498 renal
# [2] = system: HCT-15 colon
# [3] = system: HOP-62 NSCLC
# [4] = system: MOLT-4 leukemia
# [5] = system: OVCAR-8 ovarian
# [6] = system: PC-3 prostate
# [7] = system: RXF 393 renal
# [8] = system: T-47D breast
# [9] = system: UACC-257 melanoma
# [10] = system: UACC-62 melanoma
Compound,TGI [1] [µM],TGI [2] [µM],TGI [3] [µM],TGI [4] [µM],TGI [5] [µM],TGI [6] [µM],TGI [7] [µM],TGI [8] [µM],TGI [9] [µM],TGI [10] [µM]
COC(=O)c1c(C)cccc1/C=C1/Cc2c(C)cccc2C1=O,> 100,> 100,> 100,> 100,> 100,> 100,> 100,> 100,> 100,> 100
O=C1/C(=C/c2ccccc2S)N=C(c2ccccc2)N1c1nc2ccc(Sc3ccccc3)cc2[nH]1,> 100,> 100,> 100,> 100,> 100,> 100,> 100,> 100,69.2,73.5
O=c1cc(/C=C/c2ccc(O)c(O)c2)oc(/C=C/c2ccc(O)c(O)c2)c1,14.4,27.6,20.2,19.9,22.4,17.6,9.12,9.5,17.8,6.43
Cc1ccc(S(=O)(=O)Oc2cc(N)c3c(n2)CCC3)cc1,> 100,> 100,> 100,> 100,> 100,> 100,> 100,> 100,> 100,> 100
C=C1[C@@H](O)C[C@@]23CC[C@@H]4[C@@]5(C)CC[C@@H](OC(C)=O)C(C)(C)[C@@H]5C[C@@H](OC5OC(COC(C)=O)C(O)C(O)C5O)[C@@]4(C)C2=CC[C@H]3[C@H]1C (stereo not given in full),23.8,27.8,25.8,8.32,21.8,13.9,18.7,19.2,26,20.5
O=C1CCSSCCC(=O)NCCN1,> 100,> 100,> 100,> 100,> 100,> 100,> 100,> 100,> 100,> 100
Cc1cc(C)c2c(=O)n(CN3CC4Nc5ccccc5C4C3)sc2n1 (stereo not given),> 100,44.3,> 100,95.3,52,50.6,40.4,> 100,32.2,71.4
COC(=O)c1ccccc1/C=C1/Cc2ccccc2C1=O,> 100,58.6,> 100,78.5,> 100,> 100,> 100,> 100,68.1,> 100
COc1cc(OCc2ccc3oc(=O)c(-c4ccccc4)nc3c2)cc(OC)c1OC,> 100,> 100,> 100,> 100,> 100,> 100,> 100,> 100,> 100,> 100
CCCCn1c2c(n(CCCC)c1=S)-c1c(n(CCCC)c(=S)n1CCCC)S[Se][Se]S2,> 100,15.9,35.1,> 37.2,29.9,> 34.2,25.4,2.04,30.8,22.3
O=C1c2ccccc2CN1c1ccc(O)cc1,> 100,> 100,> 100,> 100,> 100,> 100,> 100,> 100,> 100,> 100
CCOC1CC(=O)c2c(Br)sc(Br)c21 (stereo not given),83.3,41.9,38.2,35.1,38.5,47.2,35.5,44.1,32.2,35.1
Cc1cc2c(C)cc(=O)[nH]c2cc1N,> 100,> 100,> 100,> 100,> 100,> 100,> 100,> 100,> 100,> 100
CCOC(=O)c1[nH]cc(C)c1-c1ccn(-c2ccccc2)c1,> 100,> 100,> 100,65.2,> 100,> 100,> 100,> 100,> 100,> 100
CC(CC(C#N)(c1ccccc1)c1ccccc1)N1CCCCC1 (stereo not given),85.1,68.6,88.4,49.3,> 100,> 100,> 100,> 100,29.6,59.1
COc1ccc(/C(=N/O)c2ccccc2-c2nc3ccccc3c(=O)n2-c2ccc(S(=O)(=O)Nc3ncccn3)cc2)cc1C,> 31.6,28.6,> 31.6,23.8,> 31.6,> 31.6,19.8,25.2,30.5,19.9
Cc1ccccc1OC(C)C(=O)NN1C(=O)CC(=O)N(c2ccc(Cl)cc2)C1=S (stereo not given),64.6,> 100,> 100,> 100,> 100,> 100,78.3,> 100,> 100,> 100
